Laboratory results published in patent US9464326B2, “Total and phosphorylated IL-1 receptor-associated kinase-1 and IL-1 receptor-associated kinase-4 as a biomarker for cancer progression and chemotherapy resistance” (University of Maryland, Baltimore, priority 2012, dated 2016).

test system: CCRF-CEM cells; test: Cell number and apoptosis assays; format: cell-based, human; conditions: IRAK-1,-4 inhibitor 0-20 μM plus titrated drug, apoptosis by 7AAD at 48 hours, FIG. 23
Procedure: TLR ligands were diluted 2-fold. Cell lines (25-40×10^3/well) were cultured for 54 hours, whereas fresh patient-derived T-ALL cells (200×10^3/well) were cultured for 30 hours prior to adding [^3H]-thymidine for 18 hours. After this time point, cells were harvested with a Packard Filter-Mate-96 cell harvester (Perkin Elmer, Waltham, Mass., USA) and counted on Packard Top Count-NXT (Perkin Elmer, Waltham, Mass., USA). Results were expressed as average counts per minute (cpm). In some experiments CCRF-CEM cells were pre-treated with TLR1-TLR2 ligand (Pam3CysK4; 2.5 ug/ml) for 48 hrs, washed, and then cultured in the presence of varying concentrations of FBS. Forty-eight hours later, proliferation (±SD) was determined by ^3H-thymidine incorporation. Alternatively, apoptosis was measured by flow cytometry after staining cells with Annexin-V (BD Pharmingen, San Diego, Calif., USA) and propidium iodide (Sigma). Cell number was counted under microscopy by staining cells with trypan blue.
CCRF-CEM cells were treated with IRAK-1,-4 inhibitor for 24, 48, 72, and 96 hours.
The T-ALL cell line CCRF-CEM was cultured in the presence of 0, 1.2, 5, 10, and 20 μM IRAK-1,-4 inhibitor. (FIG. 23). To each concentration of IRAK-1,-4 inhibitor titrating doses of ABT-737 (1000→15 nM) vincristine, VS (10→0.1 nM), and paclitaxol, PAC (100→1.5 nM). […] Apoptosis was measure 48 hours later by staining cells with 7AAD and analyzed by flow cytometry.

Question: Which “synergy with IRAK-1,-4 inhibitor” value does the source give for `CC[C@]1(O)C[C@H]2CN(CCc3c([nH]c4ccccc34)[C@@](C(=O)OC)(c3cc4c(cc3OC)N(C=O)[C@H]3[C@@](O)(C(=O)OC)[C@H](OC(C)=O)[C@]5(CC)C=CCN6CC[C@]43[C@@H]65)C2)C1` [vincristine] here?
Answer: synergy

Question: Which “synergy with IRAK-1,-4 inhibitor” value does the source give for `CN(C)CC[C@H](CSc1ccccc1)Nc1ccc(S(=O)(=O)NC(=O)c2ccc(N3CCN(Cc4ccccc4-c4ccc(Cl)cc4)CC3)cc2)cc1[N+](=O)[O-]` [ABT-737] here?
Answer: synergy

Question: For oligomicin, which “synergy with IRAK-1,-4 inhibitor” value is on record?
Answer: No synergist effect

Question: Which “synergy with IRAK-1,-4 inhibitor” value does the source give for `CC(=O)O[C@H]1C(=O)[C@@]2(C)[C@H]([C@H](OC(=O)c3ccccc3)[C@]3(O)C[C@H](OC(=O)[C@H](O)[C@@H](NC(=O)c4ccccc4)c4ccccc4)C(C)=C1C3(C)C)[C@]1(OC(C)=O)CO[C@@H]1C[C@@H]2O` [paclitaxel] here?
Answer: synergy
